According to ChEMBL document CHEMBL1201862, “PubChem BioAssay data set” (2004):
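Five compound concentrations were applied to cells in 96-well plates for 48 hours; endpoints were derived by simple linear interpolation of the resulting dose-response curve. GI50 marks 50% less growth.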 Activity calls are given as the source filed them. Cut-off read from the data, not from the text of the source: active = GI50 up to about 1.1 µM and inactive = higher.

Legend:
Experiment in all cases: NCI tumour cell line growth inhibition, 48 h
[1] = tested on: SK-MEL-28
[2] = tested on: M14
[3] = tested on: MDA-MB-231
[4] = tested on: OVCAR-5
[5] = tested on: SK-MEL-5
[6] = tested on: Malme-3M
[7] = tested on: RXF 393
[8] = tested on: HOP-62
[9] = tested on: CAKI-1
[10] = tested on: T47D
[11] = tested on: SR
[12] = tested on: SNB-75
[13] = tested on: IGROV-1
[14] = tested on: HCC 2998
[15] = tested on: SNB-19
[16] = tested on: A549
[17] = tested on: SF-268
[18] = tested on: EKVX
[19] = tested on: HT-29
[20] = tested on: SW-620

Measured: GI50

Nc1nnc2oc3ccc4ccccc4c3cc1-2
inactive: [1] 39.9 µM | [2] 37.4 µM | [3] 24.5 µM | [4] 57.1 µM | [5] 27.3 µM | [6] 23 µM | [7] 28 µM | [8] > 100 µM | [9] 48.8 µM | [10] 11.4 µM | [11] 23.1 µM | [12] 21.4 µM | [13] 30.6 µM | [14] 20.3 µM | [15] 51.8 µM | [16] 47.3 µM | [17] 34 µM | [18] 33.2 µM | [19] 38.2 µM | [20] 36.1 µM

O=C1CCC(c2ccccc2)=NN1c1nc2ccccc2s1
inactive: [1] 40.2 µM | [2] 49.7 µM | [3] 20.9 µM | [4] > 63.5 µM | [5] 20.4 µM | [6] 32.2 µM | [7] 15.4 µM | [8] 36.9 µM | [9] 32.4 µM | [10] 11.9 µM | [11] 29.7 µM | [12] 22.3 µM | [13] 34.9 µM | [14] 26.9 µM | [15] 35.6 µM | [16] 35.9 µM | [17] 27.2 µM | [18] 30.8 µM | [19] 37.4 µM | [20] 37.4 µM

CC(C)(C)c1ccc(-c2nnc(SCc3ccc(Cl)cc3)n2-c2cccc(C(F)(F)F)c2)cc1
inactive: [1] > 78.9 µM | [2] 15 µM | [3] > 69 µM | [4] 32.8 µM | [5] 14 µM | [6] 29.4 µM | [7] 8.91 µM | [8] 34.3 µM | [9] 73.5 µM | [10] 5.08 µM | [11] 5.82 µM | [12] 27.5 µM | [13] 26.9 µM | [14] 11.2 µM | [15] 36.1 µM | [16] 7.64 µM | [17] 25 µM | [18] 8.51 µM | [19] 5.47 µM | [20] 15.9 µM

O=C(Nc1ccc2oc(=O)c(C(=O)O)cc2c1)Oc1ccccc1
inactive: [1] > 100 µM | [2] > 100 µM | [3] > 100 µM | [4] > 100 µM | [5] > 100 µM | [6] > 100 µM | [7] > 100 µM | [8] > 100 µM | [9] > 100 µM | [10] > 100 µM | [11] > 100 µM | [12] > 100 µM | [13] > 100 µM | [14] 59.6 µM | [15] > 100 µM | [16] > 100 µM | [17] > 100 µM | [18] > 100 µM | [19] > 100 µM | [20] > 100 µM

CC(=O)N(CCc1ccccc1)C(C)(C#N)c1ccccc1 (stereo not given)
inactive: [1] > 100 µM | [2] > 100 µM | [3] > 100 µM | [4] > 100 µM | [5] > 100 µM | [6] > 100 µM | [7] > 100 µM | [8] > 100 µM | [9] > 100 µM | [10] > 100 µM | [11] > 100 µM | [12] > 100 µM | [13] > 100 µM | [14] > 100 µM | [15] > 100 µM | [16] > 100 µM | [17] > 100 µM | [18] > 100 µM | [19] > 100 µM | [20] > 100 µM
